Test results as given in ChEMBL document CHEMBL4177730, “Rational modification of semaxanib and sunitinib for developing a tumor growth inhibitor targeting ATP binding site of tyrosine kinase” (2018).
Activity calls are given as the source filed them. The rule behind the calls is not given here.

Legend:
[1] = system: RPMI-8226; assay: Growth inhibition of human RPMI8226 cells after 48 hrs by sulforhodamine B assay; assay type: functional; settings: RPMI-8226, 48 h
[2] = system: SR; assay: Growth inhibition of human SR cells after 48 hrs by sulforhodamine B assay; assay type: functional
[3] = system: A549; assay: Growth inhibition of human A549/ATCC cells after 48 hrs by sulforhodamine B assay; assay type: functional; settings: A549, 48 h
[4] = system: NCI-H226; assay: Growth inhibition of human NCI-H226 cells after 48 hrs by sulforhodamine B assay; assay type: functional; settings: NCI-H226, 48 h
[5] = system: NCI-H460; assay: Growth inhibition of human NCI-H460 cells after 48 hrs by sulforhodamine B assay; assay type: functional; settings: NCI-H460, 48 h
[6] = system: HCT-15; assay: Growth inhibition of human HCT15 cells after 48 hrs by sulforhodamine B assay; assay type: functional; settings: HCT-15, 48 h
[7] = system: SW-620; assay: Growth inhibition of human SW620 cells after 48 hrs by sulforhodamine B assay; assay type: functional; settings: SW-620, 48 h
[8] = system: SF-268; assay: Growth inhibition of human SF268 cells after 48 hrs by sulforhodamine B assay; assay type: functional; settings: SF-268, 48 h
[9] = system: SF-539; assay: Growth inhibition of human SF539 cells after 48 hrs by sulforhodamine B assay; assay type: functional; settings: SF-539, 48 h
[10] = system: SNB-19; assay: Growth inhibition of human SNB19 cells after 48 hrs by sulforhodamine B assay; assay type: functional; settings: SNB-19, 48 h
[11] = system: SNB-75; assay: Growth inhibition of human SNB75 cells after 48 hrs by sulforhodamine B assay; assay type: functional; settings: SNB-75, 48 h
[12] = system: SK-MEL-5; assay: Growth inhibition of human SK-MEL-5 cells after 48 hrs by sulforhodamine B assay; assay type: functional; settings: SK-MEL-5, 48 h
[13] = system: UACC-62; assay: Growth inhibition of human UACC62 cells after 48 hrs by sulforhodamine B assay; assay type: functional; settings: UACC-62, 48 h
[14] = system: IGROV-1; assay: Growth inhibition of human IGROV1 cells after 48 hrs by sulforhodamine B assay; assay type: functional; settings: IGROV-1, 48 h
[15] = system: OVCAR-4; assay: Growth inhibition of human OVCAR4 cells after 48 hrs by sulforhodamine B assay; assay type: functional; settings: OVCAR-4, 48 h
[16] = system: NCI/ADR-RES; assay: Growth inhibition of human NCI-ADR-RES cells after 48 hrs by sulforhodamine B assay; assay type: functional
[17] = system: CAKI-1; assay: Growth inhibition of human CAKI-1 cells after 48 hrs by sulforhodamine B assay; assay type: functional; settings: CAKI-1, 48 h
[18] = system: SN12C; assay: Growth inhibition of human SN12C cells after 48 hrs by sulforhodamine B assay; assay type: functional
[19] = system: PC-3; assay: Growth inhibition of human PC3 cells after 48 hrs by sulforhodamine B assay; assay type: functional; settings: PC-3, 48 h
[20] = system: T47D; assay: Growth inhibition of human T47D cells after 48 hrs by sulforhodamine B assay; assay type: functional
[21] = system: MDA-MB-468; assay: Growth inhibition of human MDA-MB-468 cells after 48 hrs by sulforhodamine B assay; assay type: functional; settings: MDA-MB-468, 48 h
[22] = system: A549; assay: Growth inhibition of human A549/ATCC cells at 10 uM after 48 hrs by sulforhodamine B assay; assay type: functional, cell-based
[23] = system: NCI-H23; assay: Growth inhibition of human NCI-H23 cells at 10 uM after 48 hrs by sulforhodamine B assay; assay type: functional, cell-based
[24] = system: NCI-H322M; assay: Growth inhibition of human NCI-H322M cells at 10 uM after 48 hrs by sulforhodamine B assay; assay type: functional, cell-based
[25] = system: HCC 2998; assay: Growth inhibition of human HCC2998 cells at 10 uM after 48 hrs by sulforhodamine B assay; assay type: functional, cell-based
[26] = system: HT-29; assay: Growth inhibition of human HT-29 cells at 10 uM after 48 hrs by sulforhodamine B assay; assay type: functional, cell-based
[27] = system: SF-295; assay: Growth inhibition of human SF295 cells at 10 uM after 48 hrs by sulforhodamine B assay; assay type: functional, cell-based
[28] = system: SNB-75; assay: Growth inhibition of human SNB75 cells at 10 uM after 48 hrs by sulforhodamine B assay; assay type: functional, cell-based
[29] = system: Malme-3M; assay: Growth inhibition of human MALME-3M cells at 10 uM after 48 hrs by sulforhodamine B assay; assay type: functional, cell-based
[30] = system: SK-MEL-28; assay: Growth inhibition of human SK-MEL-28 cells at 10 uM after 48 hrs by sulforhodamine B assay; assay type: functional, cell-based
[31] = system: SK-MEL-5; assay: Growth inhibition of human SK-MEL-5 cells at 10 uM after 48 hrs by sulforhodamine B assay; assay type: functional, cell-based
[32] = system: OVCAR-5; assay: Growth inhibition of human OVCAR5 cells at 10 uM after 48 hrs by sulforhodamine B assay; assay type: functional, cell-based
[33] = system: OVCAR-8; assay: Growth inhibition of human OVCAR8 cells at 10 uM after 48 hrs by sulforhodamine B assay; assay type: functional, cell-based
[34] = system: SK-OV-3; assay: Growth inhibition of human SKOV3 cells at 10 uM after 48 hrs by sulforhodamine B assay; assay type: functional, cell-based
[35] = system: UO-31; assay: Growth inhibition of human UO31 cells at 10 uM after 48 hrs by sulforhodamine B assay; assay type: functional, cell-based
[36] = system: MCF7; assay: Growth inhibition of human MCF7 cells at 10 uM after 48 hrs by sulforhodamine B assay; assay type: functional, cell-based
[37] = system: Hs-578T; assay: Growth inhibition of human Hs 578T cells at 10 uM after 48 hrs by sulforhodamine B assay; assay type: functional, cell-based
[38] = system: BT-549; assay: Growth inhibition of human BT549 cells at 10 uM after 48 hrs by sulforhodamine B assay; assay type: functional, cell-based
[39] = system: T47D; assay: Growth inhibition of human T47D cells at 10 uM after 48 hrs by sulforhodamine B assay; assay type: functional, cell-based
[40] = read-out: LC50 (the source's name)

## O=C1/C(=C\c2cccn2Cc2ccccc2)c2ccccc2N1c1c(Cl)cccc1Cl
[1]
  GI50: 1.28 µM
  TGI: > 100 µM
[1]; [40]
  CC50: > 100 µM
[2]
  GI50: > 100 µM
  TGI: > 100 µM
[2]; [40]
  CC50: > 100 µM
[3]
  GI50: 8.31 µM
  TGI: > 100 µM
[3]; [40]
  CC50: > 100 µM
[4]
  GI50: 6.16 µM
  TGI: > 100 µM
[4]; [40]
  CC50: > 100 µM
[5]
  GI50: 4.16 µM
  TGI: > 100 µM
[5]; [40]
  CC50: > 100 µM
[6]
  GI50: 0.37 µM
  TGI: > 100 µM
[6]; [40]
  CC50: > 100 µM
[7]
  GI50: > 100 µM
  TGI: > 100 µM
[7]; [40]
  CC50: > 100 µM
[8]
  GI50: > 100 µM
  TGI: > 100 µM
[8]; [40]
  CC50: > 100 µM
[9]
  GI50: > 100 µM
  TGI: > 100 µM
[9]; [40]
  CC50: > 100 µM
[10]
  GI50: > 100 µM
  TGI: > 100 µM
[10]; [40]
  CC50: > 100 µM
[11]
  GI50: 5.24 µM
  TGI: > 100 µM
[11]; [40]
  CC50: > 100 µM
[12]
  GI50: 2.13 µM
  TGI: > 100 µM
[12]; [40]
  CC50: > 100 µM
[13]
  GI50: 2.08 µM
  TGI: > 100 µM
[13]; [40]
  CC50: > 100 µM
[14]
  GI50: 0.54 µM
  TGI: > 100 µM
[14]; [40]
  CC50: > 100 µM
[15]
  GI50: 0.12 µM
  TGI: > 100 µM
[15]; [40]
  CC50: > 100 µM
[16]
  GI50: > 100 µM
  TGI: > 100 µM
[16]; [40]
  CC50: > 100 µM
[17]
  GI50: 8.31 µM
  TGI: > 100 µM
[17]; [40]
  CC50: > 100 µM
[18]
  GI50: > 100 µM
  TGI: > 100 µM
[18]; [40]
  CC50: > 100 µM
[19]
  GI50: 6.91 µM
  TGI: > 100 µM
[19]; [40]
  CC50: > 100 µM
[20]
  GI50: 0.21 µM
  TGI: 1.86 µM
[20]; [40]
  CC50: > 100 µM
[21]
  GI50: 0.063 µM
  TGI: 0.28 µM
[21]; [40]
  CC50: 1.38 µM
[22]
  growth inhibition (GI): Active
[23]
  growth inhibition (GI): Active
[24]
  growth inhibition (GI): Active
[25]
  growth inhibition (GI): Active
[26]
  growth inhibition (GI): Active
[27]
  growth inhibition (GI): Active
[28]
  growth inhibition (GI): Active
[29]
  growth inhibition (GI): Active
[30]
  growth inhibition (GI): Active
[31]
  growth inhibition (GI): Active
[32]
  growth inhibition (GI): Active
[33]
  growth inhibition (GI): Active
[34]
  growth inhibition (GI): Active
[35]
  growth inhibition (GI): Active
[36]
  growth inhibition (GI): Active
[37]
  growth inhibition (GI): Active
[38]
  growth inhibition (GI): Active
[39]
  growth inhibition (GI): Active
